Laboratory results published in patent publication US20170318812A1, “Plant and Crop Growth Regulating/Biostimulant Formulations and Methods of Use” (Arysta Lifescience North America, LLC, priority 2014, published 2017).
Where “and” joins values, the source holds several entries; their conditions need not be identical. Equal values may be shown once.

Tests used:
[1] = system: SORVU Sorghum bicolor (Grain sorghum); assay: Ipfencarbazone biostimulant effect, early post emergence foliar application, greenhouse pots, plant height: sorghum; assay type: in vivo; conditions: SORVU DKB 590
Text: (§1) The original objective of this Example was to evaluate the herbicidal effect of ipfencarbazone when applied as a post emergent treatment to a range of selected crops and weeds. Unexpectedly, crop plant growth stimulation was observed. The actual species of weeds and crops are listed in the summary data tabulated below and in FIGS. 1-13. By convention each plant species has a Bayer code (5-letter name) with the scientific name for the plant referenced in FIGS. 1-13. In each Figure, each tray contains the same configuration of weeds and/or crops. In each Figure there is one replication of each treatment (six treatments in total). The top three photographs in each Figure show the Bayer Codes and bottom three photographs are aligned with the top three facilitating viewing of the same plant species. Throughout the Examples various abbreviations as conventional shorthand notation and will be appreciated by those skilled in the art. Some exemplary abbreviations include, “CV”=Co-efficient of Variation,” “LSD”=Least Significant Difference” (G/L (gram per L) AND GA/L (gram of active ingredient per L); “SC”=suspension concentrate formulation. The diluent in all treatments was water. By convention factors that are identical in all treatments (e.g. diluent and surfactant) are not listed in each treatment.
(§2) Methods: The indicated size pots (see Tables below) are filled with a specific soil, the soil properties being indicated below. The referenced crops and weeds are planted by hand in each pot. […] The experiments include six treatments each replicated three times on each crop/weed species. At a specific time after emergence each crop and weed species was treated with ipfencarbazone plus a non-ionic surfactant (NIS). In the present Example, the surfactant employed was ENERGIC™ (non-ionic surfactant). The application timing is indicated in each of the Tables (1 or 2 leaf stage) below. Ipfencarbazone plus surfactant was diluted in water and applied at a rate equivalent to about 250 L/ha. Ipfencarbazone was applied using a track sprayer. After treatment, the pots were randomized in a greenhouse. At each assessment (indicated by “days after treatment” or DAT) the height of each plant was measured. The letters next to each mean indicate the level of statistical significance.
(§3) Replications: 3, Untreated treatments: 1, Design: Randomized Complete Block (RCB), Treatment units: Treated ‘Plot’ experimental unit size, Dry Form. Unit: %, Treated ‘Plot’ experimental unit size Width: 1 meter, Treated ‘Plot’ experimental unit size Length: 1.4 meters, Application volume: 250 L/ha, Mix size: 0.15 liters, […]

[2] = system: GOSHI Gossypium hirsutum (American upland cotton); assay: Ipfencarbazone biostimulant effect, early post emergence foliar application, greenhouse pots, plant height: cotton; assay type: in vivo; conditions: for Plant HEIGHT, Mean / Plant HEIGHT, single plots: Cotton 975WS; for HEIGHT, percent of untreated check (APoC) / HEIGHT, treatment mean: GOSHI 975WS
Text: as §1, §2, §3

[3] = 15 DA-A, 62.5 g ai/ha + Energic NIS 0.2 % v/v
[4] = 15 DA-A, 125 g ai/ha + Energic NIS 0.2 % v/v
[5] = 15 DA-A, 250 g ai/ha + Energic NIS 0.2 % v/v
[6] = 15 DA-A, 500 g ai/ha + Energic NIS 0.2 % v/v
[7] = 28 DA-A, 62.5 g ai/ha + Energic NIS 0.2 % v/v
[8] = 28 DA-A, 125 g ai/ha + Energic NIS 0.2 % v/v

CC(C)N(C(=O)n1cnn(-c2ccc(Cl)cc2Cl)c1=O)c1ccc(F)cc1F [ARY-0572-001, ipfencarbazone]
HEIGHT, treatment mean ([1]; 250 g ai/ha, 15 DA-A): 61.3 a cm
HEIGHT, percent of untreated check (APoC) ([1]; 250 g ai/ha, 28 DA-A): (355.0%)
HEIGHT, treatment mean ([1]; 250 g ai/ha, 28 DA-A): 101.8 a cm and 101.8 cm
HEIGHT, single plots (replicates) ([1]; 250 g ai/ha, 28 DA-A, plots 104, 201, 306): 101.3 cm and 104.0 cm and 100.0 cm
HEIGHT, percent of untreated check (APoC) ([1]; 500 g ai/ha, 15 DA-A): (248.2%)
HEIGHT, treatment mean ([1]; 500 g ai/ha, 15 DA-A): 60.4 a cm
HEIGHT, percent of untreated check (APoC) ([1]; 500 g ai/ha, 28 DA-A): (266.7%)
HEIGHT, treatment mean ([1]; 500 g ai/ha, 28 DA-A): 76.4 a cm and 76.4 cm
HEIGHT, single plots (replicates) ([1]; 500 g ai/ha, 28 DA-A, plots 105, 202, 301): 44.7 cm and 89.7 cm and 95.0 cm
HEIGHT, percent of untreated check (APoC) ([1]; 1000 g ai/ha, 15 DA-A): (93.2%)
HEIGHT, treatment mean ([1]; 1000 g ai/ha, 15 DA-A): 22.7 b cm
HEIGHT, percent of untreated check (APoC) ([1]; 1000 g ai/ha, 28 DA-A): (123.6%)
HEIGHT, treatment mean ([1]; 1000 g ai/ha, 28 DA-A): 35.4 b cm and 35.4 cm
HEIGHT, single plots (replicates) ([1]; 1000 g ai/ha, 28 DA-A, plots 106, 203, 304): 75.3 cm and 9.3 cm and 21.7 cm
Plant HEIGHT, Mean [2, 3]: 16.1 cm
Plant HEIGHT, single plots [2, 3]: 19.2 cm and 13.7 cm and 15.3 cm
Plant HEIGHT, Mean [2, 4]: 11.9 cm
Plant HEIGHT, single plots [2, 4]: 9.7 cm and 12.0 cm and 14.0 cm
Plant HEIGHT, Mean [2, 5]: 9.5 cm
Plant HEIGHT, single plots [2, 5]: 9.3 cm and 9.2 cm and 10.0 cm
Plant HEIGHT, Mean [2, 6]: 7.7 cm
Plant HEIGHT, single plots [2, 6]: 9.2 cm and 6.3 cm and 7.7 cm
Plant HEIGHT, Mean ([2]; 15 DA-A, 1000 g ai/ha + Energic NIS 0.2 % v/v): 6.9 cm
Plant HEIGHT, Mean [2, 7]: 24.9 cm
Plant HEIGHT, single plots [2, 7]: 26.0 cm and 27.7 cm and 21.0 cm
Plant HEIGHT, Mean [2, 8]: 17.7 cm
Plant HEIGHT, single plots [2, 8]: 19.0 cm and 17.3 cm and 16.7 cm
Plant HEIGHT, Mean ([2]; 28 DA-A, 250 g ai/ha + Energic NIS 0.2 % v/v): 15.8 cm
Plant HEIGHT, Mean ([2]; 28 DA-A, 500 g ai/ha + Energic NIS 0.2 % v/v): 13.2 cm
Plant HEIGHT, Mean ([2]; 28 DA-A, 1000 g ai/ha + Energic NIS 0.2 % v/v): 8.9 cm
HEIGHT, percent of untreated check (APoC) ([2]; 62.5 g ai/ha, 15 DA-A): (137.6%)
HEIGHT, treatment mean ([2]; 62.5 g ai/ha, 15 DA-A): 16.1 a cm
HEIGHT, percent of untreated check (APoC) ([2]; 62.5 g ai/ha, 28 DA-A): (154.5%)
HEIGHT, treatment mean ([2]; 62.5 g ai/ha, 28 DA-A): 24.9 a cm
HEIGHT, percent of untreated check (APoC) ([2]; 125 g ai/ha, 15 DA-A): (101.9%)
HEIGHT, treatment mean ([2]; 125 g ai/ha, 15 DA-A): 11.9 b cm
HEIGHT, percent of untreated check (APoC) ([2]; 125 g ai/ha, 28 DA-A): (109.7%)
HEIGHT, treatment mean ([2]; 125 g ai/ha, 28 DA-A): 17.7 ab cm
HEIGHT, percent of untreated check (APoC) ([2]; 250 g ai/ha, 15 DA-A): (81.4%)
HEIGHT, treatment mean ([2]; 250 g ai/ha, 15 DA-A): 9.5 bc cm
HEIGHT, percent of untreated check (APoC) ([2]; 250 g ai/ha, 28 DA-A): (97.9%)
HEIGHT, treatment mean ([2]; 250 g ai/ha, 28 DA-A): 15.8 bc cm
HEIGHT, percent of untreated check (APoC) ([2]; 500 g ai/ha, 15 DA-A): (66.2%)
HEIGHT, treatment mean ([2]; 500 g ai/ha, 15 DA-A): 7.7 c cm
HEIGHT, percent of untreated check (APoC) ([2]; 500 g ai/ha, 28 DA-A): (82.1%)
HEIGHT, treatment mean ([2]; 500 g ai/ha, 28 DA-A): 13.2 bc cm
HEIGHT, percent of untreated check (APoC) ([2]; 1000 g ai/ha, 15 DA-A): (59.5%)
HEIGHT, treatment mean ([2]; 1000 g ai/ha, 15 DA-A): 6.9 c cm
HEIGHT, percent of untreated check (APoC) ([2]; 1000 g ai/ha, 28 DA-A): (55.2%)
HEIGHT, treatment mean ([2]; 1000 g ai/ha, 28 DA-A): 8.9 c cm
